Measured values as given in patent US8969332B2, “Aryloxy dihalopropenyl ether compounds and uses thereof” (Sinochem Corporation, priority 2011, dated 2015).

Columns and labels:
[1] = test system: beet armyworm; experiment: Insecticidal activity against beet armyworm (24 well-plate artificial diet emulsion method); type: in vivo; conditions: Spodoptera exigua, 72 h, read-out: Mortality of beet armyworm (%)
Method: (§1) Compounds were dissolved in mixed solvent (acetone:methanol=1:1), and diluted to required concentration with water containing 0.1% of tweed 80.
24 well-plate artificial diet emulsion method: artificial food was added to each well of the 24 well-plate, after the artificial food was cooled, the prepared solution were added into the 24 well-plate according to the experimental design by order of chemical concentrations from low to high, by gently shaking the even emulsion film can be formed on the surface of the diet. 24 neat and healthy larvae were put into the 24 well-plate (one larvae each well) after the film was air-dried and 3 replicates were set for each treatment. Then the insects were maintained in observation room (25° C., 60˜70% R.H.). Scores were conducted and mortalities were calculated after 72 h.

[2] = test system: cabbage butterfly (Pierisrapae Linne); experiment: Field trial against cabbage butterfly; type: in vivo
Method: (§2) Calculation Method: Decrease rate of insects (%)=(the number of insects before application−the number of insects after application) the number of insects before application×100 Control efficacy (%)=(decrease rate of insects in treated area decrease rate of insects in blank comparative area)/(100−decrease rate of insects in blank comparative area)×100
The trial was carried out in a farmer's vegetable field in Xiangcheng District Suzhou City. The variety of the cabbage is Xinxia 50. The dosage of the compound 1 are 75, 105, 150 g a.i./hm^2 and the comparative agent pyridalyl is 105 g a.i./hm^2. The agent was applied on 26 May 2011. The application tool is Singaporean Linong HD-400 type backpack spray. Evenly spraying to whole cabbage which is at vegetative growth phase was conducted, Cabbage butterfly is at a peak time of 1-3 instars of larvae. The plot area is 15 m^2, 4 replicates and randomized block arrangement were set. The amount of spray liquid is 750 L/hm^2. It was from sunny to cloudy with the highest temperature of 22.6° C., and the lowest of 17.8° C. on the day of the application of the spray. Chosen 10 plants from each plot and scored the larvae at different instars at fixing time. The base number was investigated before treatment. The number of living larvae was counted after 1 day, 4 days, 7 days and 12 days respectively after application and control efficacy was calculated.
Calculation method: the same as Example 13.

[3] = test system: diamond back moth; experiment: Field trial against diamond back moth on cabbage; type: in vivo, Plutella xylostella
Method: as §2
The trial was carried out in the test filed of Shenyang Research Institute of Chemical industry Ltd. The trial crop is cabbage (Variety: Zhonggan NO 8.). The dosage of the compound 1 are 75, 105, 150 g a.i./hm^2 and comparative agent pyridalyl is 105 g a.i./hm^2. The agent was applied once on 13 Jun. 2011. The application tool is Shandongweishi WS-16P type backpack manual sprayer. Evenly spraying to whole cabbage which is in rosette stage was conducted. Diamond back moth is originated at the peak time. The plot area is 10 m^2, 3 replicates and randomized block arrangement were set. The amount of spray liquid is 750 L/hm^2. It was sunny with the highest temperature of 29° C., and the lowest of 17° C. on the day of the application of the spray. The methods of investigation and calculation are the same as Example 13.

[4] = test system: housefly; experiment: Insecticidal activity against housefly (diet incorporation test); type: in vivo; conditions: Musca domestica, 72 h, 3rd instar larvae, read-out: Mortality of housefly (%)
Method: Diet Incorporation Tests: the test compound was dissolved with 90% acetone to obtain the mother liquor after weigh accurately with an electronic balance. The required concentration solution was got by diluting to the mother liquor with a certain concentration milk powder solution according to the designed doses in the experiment. Then, the diluted concentration solution was evenly put into the petri dishes with diameter of 6 cm inside which filter paper was placed by using a transferring-liquid gun ([…], solution each petri dish). Finally the 3rd instars of larvae were put into petri dishes with 10 each petri dish, and 3 replicates were set for each treatment. Then the insects were maintained in observation room (25° C., 60˜70% R.H.). Scores were conducted and mortalities were calculated after 72 h.

[5] = test system: diamond back moth; experiment: Insecticidal activity against diamond back moth in greenhouse (airbrush spraying of cabbage leaf discs); type: in vivo; conditions: Plutella xylostella, foliar, 72 h, parallel determination, read-out: Mortality of diamond back moth (%)
Method: as §1
(§3) The method of spraying by airbrush: The cabbage leaves were made into plates of 2 cm diameter by use of punch. A test solution (0.5 ml) was sprayed by airbrush at the pressure of 0.7 kg/cm^2 to both sides of every plate. 10 Second instar larvae were put into the petri-dishes after the leaf disc air-dried and 3 replicates were set for each treatment. Then the insects were maintained in observation room (25° C., 60˜70% R.H.), Scores were conducted and mortalities were calculated after 72 h.

[6] = test system: armyworm; experiment: Insecticidal activity against armyworm in greenhouse (airbrush spraying of corn leaf discs); type: in vivo; conditions: Mythimna separata, foliar, 72 h, parallel determination
Method: as §1
as §3, with “corn” for “cabbage”, “Petri-dishes” for “petri-dishes”, “thr” for “for”, “R.H.).” for “R.H.),”

[7] = 75 g a.i./hm^2, 10% EC, 1 day after treatment
[8] = 105 g a.i./hm^2, 10% EC, 1 day after treatment
[9] = 150 g a.i./hm^2, 10% EC, 1 day after treatment

Structure (SMILES): FC(F)(F)c1ccc(Oc2ccc(OCCCOc3c(Cl)cc(OCC=C(Cl)Cl)cc3Cl)cc2)nc1 [Compound 1]
- mortality at 2.5 µg/mL ([1]; 2.5 mg/L): 47.8%
- mortality at 10 µg/mL ([1]; 10 mg/L): 100%
- Control efficiency (%) [2, 7]: 40.4%
- Control efficiency (%) ([2]; 75 g a.i./hm^2, 10% EC, 4 day after treatment): 84.1%
- Control efficiency (%) ([2]; 75 g a.i./hm^2, 10% EC, 7 day after treatment): 86.7%
- Control efficiency (%) ([2]; 75 g a.i./hm^2, 10% EC, 12 days after treatment): 81.2%
- Control efficiency (%) [2, 8]: 44.0%
- Control efficiency (%) ([2]; 105 g a.i./hm^2, 10% EC, 4 day after treatment): 87.9%
- Control efficiency (%) ([2]; 105 g a.i./hm^2, 10% EC, 7 day after treatment): 92.6%
- Control efficiency (%) ([2]; 105 g a.i./hm^2, 10% EC, 12 days after treatment): 85.0%
- Control efficiency (%) [2, 9]: 45.2%
- Control efficiency (%) ([2]; 150 g a.i./hm^2, 10% EC, 4 day after treatment): 89.6%
- Control efficiency (%) ([2]; 150 g a.i./hm^2, 10% EC, 7 day after treatment): 92.8%
- Control efficiency (%) ([2]; 150 g a.i./hm^2, 10% EC, 12 days after treatment): 85.4%
- Control efficacy (%) [3, 7]: 86.0%
- Control efficacy (%) ([3]; 75 g a.i./hm^2, 10% EC, 3 days after treatment): 98.7%
- Control efficacy (%) ([3]; 75 g a.i./hm^2, 10% EC, 7 days after treatment): 97.6%
- Control efficacy (%) [3, 8]: 93.4%
- Control efficacy (%) ([3]; 105 g a.i./hm^2, 10% EC, 3 days after treatment): 97.0%
- Control efficacy (%) ([3]; 105 g a.i./hm^2, 10% EC, 7 days after treatment): 97.8%
- Control efficacy (%) [3, 9]: 90.4%
- Control efficacy (%) ([3]; 150 g a.i./hm^2, 10% EC, 3 days after treatment): 97.9%
- Control efficacy (%) ([3]; 150 g a.i./hm^2, 10% EC, 7 days after treatment): 97.9%
- mortality at 10 µg/mL ([4]; 10 mg/L): 66.7%
- mortality at 20 µg/mL ([4]; 20 mg/L): 100%
- mortality at 6.25 µg/mL ([5]; 6.25 mg/L): 100%
- mortality at 25 µg/mL ([5]; 25 mg/L): 100%
- mortality at 50 µg/mL ([5]; 50 mg/L): 100%
- mortality at 10 µg/mL ([6]; 10 mg/L): 100%
- mortality at 100 µg/mL ([6]; 100 mg/L): 100%
